Calls of active or inactive are those of the source. The rule behind the calls is not given here.

Data on nine molecules can be found in ChEMBL document CHEMBL3612057, “Discovery of indolizines containing triazine moiety as new leads for the development of antitumoral agents targeting mitotic events” (2015).

The species named for assay [1] is Ovis aries. Kind of assay: Inhibition of sheep tubulin polymerization at 100 uM by fluorescence assay.
The subject of assay [2] is CCRF-CEM. The experiment in a line: Cytotoxicity against human CCRF-CEM cells assessed as growth inhibition at 10 uM after 24 hrs by SRB assay. Format: functional. On the technique in general: In SRB staining, fixed cells bind dye roughly in proportion to their protein.
The test system of assay [3] is HL-60(TB). Kind of assay: Cytotoxicity against human HL-60(TB) cells assessed as growth inhibition at 10 uM after 24 hrs by SRB assay. Format: functional.
Assay [4] deals with K562. Kind of assay: Cytotoxicity against human K562 cells assessed as growth inhibition at 10 uM after 24 hrs by SRB assay. Type of assay: functional.
The subject of assay [5] is RPMI-8226. The experiment in a line: Cytotoxicity against human RPMI8226 cells assessed as growth inhibition at 10 uM after 24 hrs by SRB assay. Type of assay: functional.
Assay [6] has as its system SR. The experiment in a line: Cytotoxicity against human SR cells assessed as growth inhibition at 10 uM after 24 hrs by SRB assay. Type of assay: functional.
Assay [7] relates to A549. The experiment in a line: Cytotoxicity against human A549 cells assessed as growth inhibition at 10 uM after 24 hrs by SRB assay. Type of assay: functional. The settings on record: A549, 24 h, read-out: GI.
Assay [8] concerns HOP-62. Kind of assay: Cytotoxicity against human HOP62 cells assessed as growth inhibition at 10 uM after 24 hrs by SRB assay. Format: functional. To be noted: HOP-62, 24 h, read-out: GI.
For assay [9], the system named is HOP-92. Kind of assay: Cytotoxicity against human HOP92 cells assessed as growth inhibition at 10 uM after 24 hrs by SRB assay. Format: functional.
Assay [10] relates to NCI-H226. Kind of assay: Cytotoxicity against human NCI-H226 cells assessed as growth inhibition at 10 uM after 24 hrs by SRB assay. Format: functional.
In assay [11] the test system is NCI-H460. The experiment in a line: Cytotoxicity against human NCI-H460 cells assessed as growth inhibition at 10 uM after 24 hrs by SRB assay. Type of assay: functional.
For assay [12], the system named is NCI-H522. The experiment in a line: Cytotoxicity against human NCI-H522 cells assessed as growth inhibition at 10 uM after 24 hrs by SRB assay. To be noted: NCI-H522, 24 h, read-out: GI. Type of assay: functional.
Assay [13] has as its system HCT-116. Kind of assay: Cytotoxicity against human HCT116 cells assessed as growth inhibition at 10 uM after 24 hrs by SRB assay. Format: functional.
The subject of assay [14] is SF-295. Kind of assay: Cytotoxicity against human SF295 cells assessed as growth inhibition at 10 uM after 24 hrs by SRB assay. Format: functional.
Assay [15] relates to SF-539. The experiment in a line: Cytotoxicity against human SF539 cells assessed as growth inhibition at 10 uM after 24 hrs by SRB assay. Format: functional. The settings on record: SF-539, 24 h, read-out: GI.
The subject of assay [16] is SNB-75. The experiment in a line: Cytotoxicity against human SNB75 cells assessed as growth inhibition at 10 uM after 24 hrs by SRB assay. Format: functional. To be noted: SNB-75, 24 h, read-out: GI.
The test system of assay [17] is U-251. Kind of assay: Cytotoxicity against human U251 cells assessed as growth inhibition at 10 uM after 24 hrs by SRB assay. Format: functional. The settings on record: U-251, 24 h, read-out: GI.
Assay [18] deals with Malme-3M. The experiment in a line: Cytotoxicity against human MALME-3M cells assessed as growth inhibition at 10 uM after 24 hrs by SRB assay. To be noted: read-out: GI. Format: functional.
The subject of assay [19] is MDA-MB-435. Kind of assay: Cytotoxicity against human MDA-MB-435 cells assessed as growth inhibition at 10 uM after 24 hrs by SRB assay. Format: functional.
The subject of assay [20] is SK-MEL-28. The experiment in a line: Cytotoxicity against human SK-MEL-28 cells assessed as growth inhibition at 10 uM after 24 hrs by SRB assay. Format: functional.
In assay [21] the test system is SK-MEL-5. The experiment in a line: Cytotoxicity against human SK-MEL-5 cells assessed as growth inhibition at 10 uM after 24 hrs by SRB assay. Format: functional.
Assay [22] concerns UACC-257. The experiment in a line: Cytotoxicity against human UACC257 cells assessed as growth inhibition at 10 uM after 24 hrs by SRB assay. Type of assay: functional. To be noted: UACC-257, 24 h, read-out: GI.
In assay [23] the test system is UACC-62. Kind of assay: Cytotoxicity against human UACC62 cells assessed as growth inhibition at 10 uM after 24 hrs by SRB assay. To be noted: UACC-62, 24 h, read-out: GI. Type of assay: functional.
The subject of assay [24] is OVCAR-3. Kind of assay: Cytotoxicity against human OVCAR3 cells assessed as growth inhibition at 10 uM after 24 hrs by SRB assay. Type of assay: functional.
Assay [25] deals with OVCAR-4. The experiment in a line: Cytotoxicity against human OVCAR4 cells assessed as growth inhibition at 10 uM after 24 hrs by SRB assay. Type of assay: functional.
For assay [26], the system named is OVCAR-8. The experiment in a line: Cytotoxicity against human OVCAR8 cells assessed as growth inhibition at 10 uM after 24 hrs by SRB assay. Format: functional. To be noted: OVCAR-8, 24 h, read-out: GI.
Assay [27] deals with NCI/ADR-RES. Kind of assay: Cytotoxicity against human NCI/ADR-RES cells assessed as growth inhibition at 10 uM after 24 hrs by SRB assay. Type of assay: functional. The settings on record: read-out: GI.
In assay [28] the test system is SK-OV-3. Kind of assay: Cytotoxicity against human SKOV3 cells assessed as growth inhibition at 10 uM after 24 hrs by SRB assay. Type of assay: functional. To be noted: SK-OV-3, 24 h, read-out: GI.
Assay [29] concerns 786-0. The experiment in a line: Cytotoxicity against human 786-0 cells assessed as growth inhibition at 10 uM after 24 hrs by SRB assay. The settings on record: 786-0, 24 h, read-out: GI. Format: functional.
Assay [30] has as its system ACHN. Kind of assay: Cytotoxicity against human ACHN cells assessed as growth inhibition at 10 uM after 24 hrs by SRB assay. The settings on record: read-out: GI. Type of assay: functional.
Assay [31] relates to CAKI-1. The experiment in a line: Cytotoxicity against human CAKI-1 cells assessed as growth inhibition at 10 uM after 24 hrs by SRB assay. Format: functional.
Assay [32] has as its system RXF 393. Kind of assay: Cytotoxicity against human RXF393 cells assessed as growth inhibition at 10 uM after 24 hrs by SRB assay. Type of assay: functional. The settings on record: RXF 393, 24 h, read-out: GI.
The test system of assay [33] is TK-10. Kind of assay: Cytotoxicity against human TK10 cells assessed as growth inhibition at 10 uM after 24 hrs by SRB assay. Type of assay: functional.
Assay [34] relates to PC-3. The experiment in a line: Cytotoxicity against human PC3 cells assessed as growth inhibition at 10 uM after 24 hrs by SRB assay. Format: functional.
Assay [35] concerns MCF7. Kind of assay: Cytotoxicity against human MCF7 cells assessed as growth inhibition at 10 uM after 24 hrs by SRB assay. Format: functional.
The test system of assay [36] is MDA-MB-231. Kind of assay: Cytotoxicity against human MDA-MB-231 cells assessed as growth inhibition at 10 uM after 24 hrs by SRB assay. Format: functional. To be noted: MDA-MB-231, 24 h, read-out: GI.
A short description of assay [37]: Cytotoxicity against human Hs578T cells assessed as growth inhibition at 10 uM after 24 hrs by SRB assay. Type of assay: functional. The settings on record: Hs-578T, read-out: GI.
Assay [38] concerns T47D. Kind of assay: Cytotoxicity against human T47D cells assessed as growth inhibition at 10 uM after 24 hrs by SRB assay. Format: functional.

`COc1nc(OC)nc(-c2cc(C(=O)c3ccc(-c4ccccc4)cc3)n3ccccc23)n1`: the inhibition result in [1] is “inactive”.

In the case of `COc1nc(OC)nc(-c2cc(C(=O)c3ccc(C#N)cc3)n3ccccc23)n1`, the inhibition entry in [1] was “inactive”.

Turning to `COc1nc(OC)nc(-c2cc(C(=O)c3cc(OC)c(OC)c(OC)c3)n3ccc(C)cc23)n1`, the inhibition of growth at 10 µM came to 26% in assay [2] (read-out: GI); 60% in [3] (HL-60, 24 h, read-out: GI); 56% in assay [4] (K562, 24 h, read-out: GI); 30% in assay [5] (RPMI-8226, 24 h, read-out: GI); 74% in assay [6] (read-out: GI); 36% in assay [7]. In addition, the inhibition of growth at 10 µM in assay [8] is 28%; in assay [11] (NCI-H460, 24 h, read-out: GI), 16%; in [12], 43%; in assay [13] (HCT-116, 24 h, read-out: GI), 27%; in [15], 29%; in assay [16] it was 58%. The inhibition of growth at 10 µM in [17] was 15%; in assay [18] it was 61%; in assay [19] (MDA-MB-435, 24 h, read-out: GI), 100%; in assay [20] (SK-MEL-28, 24 h, read-out: GI), 40%; in assay [21] (SK-MEL-5, 24 h, read-out: GI), 63%; in assay [22], 38%. Also, the inhibition of growth at 10 µM in assay [23] was found to be 63%; in [24] (OVCAR-3, 24 h, read-out: GI), 75%; in [25] (OVCAR-4, 24 h, read-out: GI) it was 21%; in [26], 15%; in assay [27] it was 24%; in [28], 29%. Besides, the inhibition of growth at 10 µM in [29] is 20%; in [30], 47%; in assay [31] (CAKI-1, 24 h, read-out: GI), 25%; in assay [32], 41%; in [34] (PC-3, 24 h, read-out: GI), 36%; in assay [35] (MCF7, 24 h, read-out: GI) it was 73%. Besides, the inhibition of growth at 10 µM in assay [36] is 25%; in [37] it was 35%. Besides, the “growth inhibition (GI)” value in [9], in assay [10], in assay [14] and in assay [33] was “inactive” throughout. Further, the inhibition entry in assay [1] was “inactive”.

Turning to `COc1nc(-c2cc(C(=O)c3ccc(Br)cc3)n3ccccc23)[nH]c(=O)n1`, the inhibition entry in [1] is “inactive”.

For the molecule `COc1nc(OC)nc(-c2cc(C(=O)c3ccc(Br)cc3)n3cc(C)cc(C)c23)n1`, the inhibition result in assay [1] was “inactive”.

As to `COc1nc(OC)nc(-c2cc(C(=O)c3ccc(F)cc3)n3ccccc23)n1`, the inhibition result in assay [1] was “inactive”.

As to `Cn1c(-c2cc(C(=O)c3ccc(Br)cc3)n3ccccc23)nc(=O)[nH]c1=O`, the inhibition result in assay [1] was “inactive”.

As for `COc1nc(OC)nc(-c2cc(C(=O)c3ccc(C)cc3)n3ccc(C#N)cc23)n1`, the “growth inhibition (GI)” value in assay [2], in assay [3], in assay [4], in [5], in assay [6] and in assay [10] was “inactive” throughout. Moreover, the “growth inhibition (GI)” value in assay [11], in assay [13], in assay [19], in assay [20], in [21] and in assay [24] was “inactive” throughout. Besides, the “growth inhibition (GI)” value in [25], in assay [31], in assay [33], in assay [34], in [35] and in assay [38] was “inactive” throughout. Further, the inhibition of growth at 10 µM in assay [7] was 11%; in assay [8], 60%; in assay [9] (HOP-92, 24 h, read-out: GI) it was 11%; in [12], 21%; in assay [14] (SF-295, 24 h, read-out: GI) it was 47%; in assay [15], 42%. In addition, the inhibition of growth at 10 µM is -14% in [16]; 56% in [17]; 17% in [18]; 16% in [22]; 14% in assay [23]; 14% in [26]. For the same molecule, the inhibition of growth at 10 µM in assay [28] was determined as 42%; in [29] it was 40%; in assay [30], 15%; in [32], 52%; in assay [36], 39%; in [37] it was 42%. The inhibition result in assay [1] was “inactive”.

As for `O=C(c1ccc(Br)cc1)c1cc(-c2nc(=O)[nH]c(=O)[nH]2)c2ccccn12`, in assay [1], the inhibition entry is “inactive”.
